≈ marks a conversion by molar mass, not a printed value. Where two headings read alike, the source gives them in different places.
Tests used:
[1] = system: MRSA COL and MRSA Strain No. 5; experiment: Potentiating effect of various gallates for antibacterial activity of oxacillin (MIC by broth microdilution method and FIC); assay type: cell-based, Staphylococcus aureus; details: for FIC value: combination with oxacillin
Experimental: According to the broth microdilution method defined by Japan Society of Chemotherapy, MIC was determined. CAMHA was prepared by adding 50 mg/l of Ca-ion, 25 mg/l of Mg-ion, and 2% of NaCl to MHB (Mueller-Hinton Broth), and it was used as a medium for use in the measurement of sensitivity. In 96-well microplates 100 μl of the medium for use in the measurement of sensitivity containing drugs was dispensed. The bacterial liquid was incubated at 37° C. overnight, diluted with saline and added to the plate so that the final concentration of the bacteria was 5×10^5 CFU/well. […] FIC (fractional inhibitory concentration) was calculated from the result and the potency of the effect of the combination use was evaluated.

[2] = system: MRSA and MSSA; experiment: Antibacterial activity of gallic acid, various gallates and multivalent phenol derivatives alone (agar plate dilution method, MIC); assay type: cell-based, Staphylococcus aureus; details: Staphylococcus aureus
Experimental: According to the agar plate dilution method defined by Japan Society of Chemotherapy, MIC (Minimum inhibitory concentration) was determined. CAMHA was prepared by adding 50 mg/l of Ca-ion, 25 mg/l of Mg-ion, and 2% of NaCl to Mueller-Hinton II Agar (MHA), and it was used as a medium for use in the measurement of sensitivity. The bacterial liquid was incubated at 37° C. overnight and diluted to 10^6 CFU/ml with saline.
MIC for gallic acid, various gallates and multivalent phenol derivatives alone with MRSA and MSSA were determined as described in experiment 2.

[3] = MSSA #1003, read-out: MIC alone
[4] = MSSA #1010, read-out: MIC alone
[5] = MSSA #1020, read-out: MIC alone
[6] = MSSA #1023, read-out: MIC alone
[7] = MSSA #1029, read-out: MIC alone
[8] = MSSA #1032, read-out: MIC alone

`CCCCCCOC(=O)c1cc(O)c(O)c(O)c1` [Hexyl gallate, n-hexyl gallate] was tested, and the FIC value ([1]; MRSA COL) was 0.5, the FIC value ([1]; MRSA Strain No. 5) was 0.502 and the MIC50 [2] was 62.5 µg/mL (≈ 246 µM). For the same molecule, the MIC ([2]; ATCC 6538 / MRSA / MSSA, ATCC6538, read-out: MIC alone) was 31.3 µg/mL (≈ 123 µM), the MIC ([2]; COL, read-out: MIC alone) was 31.3 µg/mL (≈ 123 µM) and the MIC ([2]; MRSA #1, read-out: MIC alone) was 62.5 µg/mL (≈ 246 µM). It also gave an MIC ([2]; MRSA #2, read-out: MIC alone) of 31.3 µg/mL (≈ 123 µM), an MIC ([2]; MRSA #3, read-out: MIC alone) of 31.3 µg/mL (≈ 123 µM) and an MIC ([2]; MRSA #4, read-out: MIC alone) of 31.3 µg/mL (≈ 123 µM). The MIC ([2]; MRSA #5, read-out: MIC alone) was 31.3 µg/mL (≈ 123 µM), the MIC ([2]; MRSA #6, read-out: MIC alone) was 31.3 µg/mL (≈ 123 µM) and the MIC ([2]; MRSA #7, read-out: MIC alone) was 31.3 µg/mL (≈ 123 µM). It also gave an MIC ([2]; MRSA #8, read-out: MIC alone) of 31.3 µg/mL (≈ 123 µM), an MIC ([2]; MRSA #9, read-out: MIC alone) of 31.3 µg/mL (≈ 123 µM) and an MIC ([2]; MRSA #10, read-out: MIC alone) of 31.3 µg/mL (≈ 123 µM). The MIC ([2]; MRSA #12, read-out: MIC alone) was 62.5 µg/mL (≈ 246 µM), the MIC ([2]; MRSA #16, read-out: MIC alone) was 62.5 µg/mL (≈ 246 µM) and the MIC ([2]; MRSA #17, read-out: MIC alone) was 62.5 µg/mL (≈ 246 µM). The MIC ([2]; MRSA #18, read-out: MIC alone) was 62.5 µg/mL (≈ 246 µM), the MIC ([2]; MRSA #20, read-out: MIC alone) was 62.5 µg/mL (≈ 246 µM) and the MIC ([2]; MRSA #21, read-out: MIC alone) was 62.5 µg/mL (≈ 246 µM). For the same molecule, the MIC ([2]; MRSA #22, read-out: MIC alone) was 62.5 µg/mL (≈ 246 µM), the MIC ([2]; MRSA #24, read-out: MIC alone) was 62.5 µg/mL (≈ 246 µM) and the MIC [2, 3] was 62.5 µg/mL (≈ 246 µM). For the same molecule, the MIC [2, 4] was 62.5 µg/mL (≈ 246 µM), the MIC [2, 5] was 62.5 µg/mL (≈ 246 µM) and the MIC [2, 6] was 62.5 µg/mL (≈ 246 µM). It also gave an MIC [2, 7] of 62.5 µg/mL (≈ 246 µM) and an MIC [2, 8] of 62.5 µg/mL (≈ 246 µM).

Molecule `CCCCCCCCCCCCOC(=O)c1cc(O)c(O)c(O)c1` [Lauryl gallate, n-lauryl gallate] has an FIC value ([1]; MRSA COL) of 0.531, an FIC value ([1]; MRSA Strain No. 5) of 0.375 and an MIC ([2]; ATCC 6538 / MRSA / MSSA, ATCC6538, compound alone, read-out: MIC) of 62.5 µg/mL (≈ 185 µM). For the same molecule, the MIC ([2]; COL, compound alone, read-out: MIC) was 31.3 µg/mL (≈ 92.5 µM), the MIC ([2]; MRSA #1, compound alone, read-out: MIC) was 62.5 µg/mL (≈ 185 µM) and the MIC ([2]; MRSA #2, compound alone, read-out: MIC) was 62.5 µg/mL (≈ 185 µM). For the same molecule, the MIC ([2]; MRSA #3, compound alone, read-out: MIC) was 62.5 µg/mL (≈ 185 µM), the MIC ([2]; MRSA #4, compound alone, read-out: MIC) was 62.5 µg/mL (≈ 185 µM) and the MIC ([2]; MRSA #5, compound alone, read-out: MIC) was 62.5 µg/mL (≈ 185 µM). It also gave an MIC ([2]; MRSA #6, compound alone, read-out: MIC) of 31.3 µg/mL (≈ 92.5 µM), an MIC ([2]; MRSA #7, compound alone, read-out: MIC) of 31.3 µg/mL (≈ 92.5 µM) and an MIC ([2]; MRSA #8, compound alone, read-out: MIC) of 31.3 µg/mL (≈ 92.5 µM). It also gave an MIC ([2]; MRSA #9, compound alone, read-out: MIC) of 31.3 µg/mL (≈ 92.5 µM), an MIC ([2]; MRSA #10, compound alone, read-out: MIC) of 15.6 µg/mL (≈ 46.1 µM) and an MIC ([2]; MRSA #12, compound alone, read-out: MIC) of 62.5 µg/mL (≈ 185 µM). The MIC ([2]; MRSA #16, compound alone, read-out: MIC) was 62.5 µg/mL (≈ 185 µM), the MIC ([2]; MRSA #17, compound alone, read-out: MIC) was 62.5 µg/mL (≈ 185 µM) and the MIC ([2]; MRSA #18, compound alone, read-out: MIC) was 62.5 µg/mL (≈ 185 µM). It also gave an MIC ([2]; MRSA #20, compound alone, read-out: MIC) of 62.5 µg/mL (≈ 185 µM), an MIC ([2]; MRSA #21, compound alone, read-out: MIC) of 62.5 µg/mL (≈ 185 µM) and an MIC ([2]; MRSA #22, compound alone, read-out: MIC) of 62.5 µg/mL (≈ 185 µM). It also gave an MIC ([2]; MRSA #24, compound alone, read-out: MIC) of 62.5 µg/mL (≈ 185 µM), an MIC ([2]; MSSA #1003, compound alone, read-out: MIC) of 62.6 µg/mL (≈ 185 µM) and an MIC ([2]; MSSA #1010, compound alone, read-out: MIC) of 62.5 µg/mL (≈ 185 µM). For the same molecule, the MIC ([2]; MSSA #1020, compound alone, read-out: MIC) was 62.5 µg/mL (≈ 185 µM), the MIC ([2]; MSSA #1023, compound alone, read-out: MIC) was 62.5 µg/mL (≈ 185 µM) and the MIC ([2]; MSSA #1029, compound alone, read-out: MIC) was 62.5 µg/mL (≈ 185 µM). The MIC ([2]; MSSA #1032, compound alone, read-out: MIC) was 62.5 µg/mL (≈ 185 µM) and the MIC50 ([2]; over all strains of Table 3-2, compound alone, read-out: MIC50) was 62.5 µg/mL (≈ 185 µM).

For `CCCCCCCCCOC(=O)c1cc(O)c(O)c(O)c1` [Nonyl gallate, n-nonyl gallate], the “antibacterial activity when used alone” value ([1]; COL Strain and Strain No. 5) was “most potent”, the FIC value ([1]; MRSA COL) was 0.625 and the FIC value ([1]; MRSA Strain No. 5) was 0.502. The MIC50 [2] was 15.7 µg/mL (≈ 53 µM), the MIC ([2]; ATCC 6538 / MRSA / MSSA, read-out: MIC alone) was 15.7 µg/mL (≈ 53 µM) and the MIC ([2]; COL, read-out: MIC alone) was 15.7 µg/mL (≈ 53 µM). For the same molecule, the MIC ([2]; MRSA #1, read-out: MIC alone) was 15.7 µg/mL (≈ 53 µM), the MIC ([2]; MRSA #2, read-out: MIC alone) was 15.7 µg/mL (≈ 53 µM) and the MIC ([2]; MRSA #3, read-out: MIC alone) was 15.7 µg/mL (≈ 53 µM). For the same molecule, the MIC ([2]; MRSA #4, read-out: MIC alone) was 15.7 µg/mL (≈ 53 µM), the MIC ([2]; MRSA #5, read-out: MIC alone) was 15.7 µg/mL (≈ 53 µM) and the MIC ([2]; MRSA #6, read-out: MIC alone) was 15.7 µg/mL (≈ 53 µM). It also gave an MIC ([2]; MRSA #7, read-out: MIC alone) of 15.7 µg/mL (≈ 53 µM), an MIC ([2]; MRSA #8, read-out: MIC alone) of 15.7 µg/mL (≈ 53 µM) and an MIC ([2]; MRSA #9, read-out: MIC alone) of 15.7 µg/mL (≈ 53 µM). It also gave an MIC ([2]; MRSA #10, read-out: MIC alone) of 15.7 µg/mL (≈ 53 µM), an MIC ([2]; MRSA #12, read-out: MIC alone) of 15.7 µg/mL (≈ 53 µM) and an MIC ([2]; MRSA #16, read-out: MIC alone) of 15.7 µg/mL (≈ 53 µM). It also gave an MIC ([2]; MRSA #17, read-out: MIC alone) of 15.7 µg/mL (≈ 53 µM), an MIC ([2]; MRSA #18, read-out: MIC alone) of 15.7 µg/mL (≈ 53 µM) and an MIC ([2]; MRSA #20, read-out: MIC alone) of 15.7 µg/mL (≈ 53 µM). It also gave an MIC ([2]; MRSA #21, read-out: MIC alone) of 15.7 µg/mL (≈ 53 µM), an MIC ([2]; MRSA #22, read-out: MIC alone) of 15.7 µg/mL (≈ 53 µM) and an MIC ([2]; MRSA #24, read-out: MIC alone) of 15.7 µg/mL (≈ 53 µM). For the same molecule, the MIC ([2]; MRSA and MSSR, read-out: MIC alone) was 15.7 µg/mL (≈ 53 µM), the MIC [2, 3] was 15.7 µg/mL (≈ 53 µM) and the MIC [2, 4] was 15.7 µg/mL (≈ 53 µM). It also gave an MIC [2, 5] of 15.7 µg/mL (≈ 53 µM), an MIC [2, 6] of 15.7 µg/mL (≈ 53 µM) and an MIC [2, 7] of 15.7 µg/mL (≈ 53 µM). It also gave an MIC [2, 8] of 15.7 µg/mL (≈ 53 µM).

Reference: US20060235076A1, “Medicinal composition for treating infection with drug-resistant staphylococcus aureus” (priority 2003, published 2006)
